Reference: article PMC5218480 (PLoS ONE, 2017)

Test system: MV-4-11 cells
Experiment: Gene expression microarray analysis (Affymetrix PrimeView) and GSEA
Format: cell-based, human
Set-up: RFU PODN (11730768_x_at) / Fold change /veh PODN (11730768_x_at) / RFU LINC00158 (11744669_a_at) / Fold change /veh LINC00158 (11744669_a_at) / RFU DUSP10 (11751237_a_at) / Fold change /veh DUSP10 (11751237_a_at) / RFU ID3 (11757404_x_at) / Fold change /veh ID3 (11757404_x_at) / RFU PLEKHG5 (11737974_s_at) / Fold change /veh PLEKHG5 (11737974_s_at) / RFU LRRC4B (11730491_at) / Fold change /veh LRRC4B (11730491_at) / RFU GIMAP4 (11747438_a_at) / Fold change /veh GIMAP4 (11747438_a_at) / RFU KRT8 (11758183_x_at) / Fold change /veh KRT8 (11758183_x_at) / RFU CNN1 (11734310_a_at) / Fold change /veh CNN1 (11734310_a_at) / RFU VPS37D (11726825_at) / Fold change /veh VPS37D (11726825_at) / RFU C10orf10 (11716522_x_at) / Fold change /veh C10orf10 (11716522_x_at) / RFU KIR2DL2 /// KIR2DL4 /// KIR2DL5A /// KIR2DL5B /// KIR2DS1 /// KIR2DS2 /// KIR2DS3 /// KIR2DS4 /// KIR3DL3 /// KIR3DL3 /// KIR3DS1 (11738374_at) / Fold change /veh KIR2DL2 /// KIR2DL4 /// KIR2DL5A /// KIR2DL5B /// KIR2DS1 /// KIR2DS2 /// KIR2DS3 /// KIR2DS4 /// KIR3DL3 /// KIR3DL3 /// KIR3DS1 (11738374_at) / RFU C1QL1 (11718748_at) / Fold change /veh C1QL1 (11718748_at) / RFU TMPRSS4 (11747572_a_at) / Fold change /veh TMPRSS4 (11747572_a_at) / RFU HAMP (11756126_x_at) / Fold change /veh HAMP (11756126_x_at) / RFU RNFT2 (11725882_a_at) / Fold change /veh RNFT2 (11725882_a_at) / RFU NR4A2 (11747474_a_at) / Fold change /veh NR4A2 (11747474_a_at) / RFU ABCC12 (11746883_a_at) / Fold change /veh ABCC12 (11746883_a_at) / RFU TMEM136 (11760407_x_at) / Fold change /veh TMEM136 (11760407_x_at) / RFU CLDN22 /// WWC2 (11732394_at) / Fold change /veh CLDN22 /// WWC2 (11732394_at) / RFU HLA-DPB1 (11760878_x_at) / Fold change /veh HLA-DPB1 (11760878_x_at) / RFU SPINT1 (11716480_a_at) / Fold change /veh SPINT1 (11716480_a_at) / RFU GAP43 (11754022_s_at) / Fold change /veh GAP43 (11754022_s_at) / RFU A4GNT (11735810_at) / Fold change /veh A4GNT (11735810_at) / RFU PRB3 (11715151_x_at) / Fold change /veh PRB3 (11715151_x_at) / RFU TUBB4B (11761932_at) / Fold change /veh TUBB4B (11761932_at) / RFU CAPN14 (11732068_a_at) / Fold change /veh CAPN14 (11732068_a_at) / RFU TMCC2 (11721928_a_at) / Fold change /veh TMCC2 (11721928_a_at) / RFU IRGQ (11745062_a_at) / Fold change /veh IRGQ (11745062_a_at) / RFU FAM174B (11720279_a_at) / Fold change /veh FAM174B (11720279_a_at) / RFU TMPRSS4 (11748680_a_at) / Fold change /veh TMPRSS4 (11748680_a_at) / RFU FAM212B (11763350_a_at) / Fold change /veh FAM212B (11763350_a_at) / RFU PLEKHG5 (11743358_a_at) / Fold change /veh PLEKHG5 (11743358_a_at) / RFU ZSCAN30 (11745921_a_at) / Fold change /veh ZSCAN30 (11745921_a_at) / RFU CMKLR1 (11741424_a_at) / Fold change /veh CMKLR1 (11741424_a_at) / RFU LOC101060620 /// MAPK8IP1 (11723275_at) / Fold change /veh LOC101060620 /// MAPK8IP1 (11723275_at) / RFU SPTSSB (11747773_x_at) / Fold change /veh SPTSSB (11747773_x_at) / RFU PRSS12 (11739890_at) / Fold change /veh PRSS12 (11739890_at) / RFU BIN1 (11741810_x_at) / Fold change /veh BIN1 (11741810_x_at) / RFU WNT11 (11732464_a_at) / Fold change /veh WNT11 (11732464_a_at) / RFU C10orf10 (11716521_a_at) / Fold change /veh C10orf10 (11716521_a_at) / RFU C5orf56 (11738089_at) / Fold change /veh C5orf56 (11738089_at) / RFU CYB561 (11721691_x_at) / Fold change /veh CYB561 (11721691_x_at) / RFU ANKRD19P (11752326_a_at) / Fold change /veh ANKRD19P (11752326_a_at) / RFU OR2T12 /// OR2T33 /// OR2T8 (11738714_s_at) / Fold change /veh OR2T12 /// OR2T33 /// OR2T8 (11738714_s_at) / RFU VCAN (11748164_a_at) / Fold change /veh VCAN (11748164_a_at) / RFU JSRP1 (11732532_at) / Fold change /veh JSRP1 (11732532_at) / RFU KRTAP10-11 (11738290_x_at) / Fold change /veh KRTAP10-11 (11738290_x_at) / RFU MYO3A (11730013_a_at) / Fold change /veh MYO3A (11730013_a_at) / RFU EBF3 (11725865_a_at) / Fold change /veh EBF3 (11725865_a_at) / RFU CAMK2N1 (11719241_x_at) / Fold change /veh CAMK2N1 (11719241_x_at) / RFU C5orf56 (11738088_a_at) / Fold change /veh C5orf56 (11738088_a_at) / RFU OLFML3 (11715873_a_at) / Fold change /veh OLFML3 (11715873_a_at) / RFU LOC100653217 /// NTM (11731650_a_at) / Fold change /veh LOC100653217 /// NTM (11731650_a_at) / RFU MAPK11 (11762145_a_at) / Fold change /veh MAPK11 (11762145_a_at) / RFU FIZ1 (11724087_x_at) / Fold change /veh FIZ1 (11724087_x_at) / RFU OASL (11726364_x_at) / Fold change /veh OASL (11726364_x_at) / RFU SOX15 (11748057_x_at) / Fold change /veh SOX15 (11748057_x_at) / RFU CD79A (11719716_a_at) / Fold change /veh CD79A (11719716_a_at) / RFU HIST1H1D (11736915_at) / Fold change /veh HIST1H1D (11736915_at) / RFU CASKIN2 (11723855_a_at) / Fold change /veh CASKIN2 (11723855_a_at) / RFU LOC730098 (11760151_x_at) / Fold change /veh LOC730098 (11760151_x_at) / RFU OR4N2 (11742367_at) / Fold change /veh OR4N2 (11742367_at) / RFU PRRT2 (11749266_a_at) / Fold change /veh PRRT2 (11749266_a_at) / RFU SNX32 (11753110_a_at) / Fold change /veh SNX32 (11753110_a_at) / RFU CDHR5 (11726645_a_at) / Fold change /veh CDHR5 (11726645_a_at) / RFU RCAN1 (11760418_a_at) / Fold change /veh RCAN1 (11760418_a_at) / RFU FAM167A (11723789_a_at) / Fold change /veh FAM167A (11723789_a_at) / RFU FAM26E (11764081_at) / Fold change /veh FAM26E (11764081_at) / RFU ISYNA1 (11749810_s_at) / Fold change /veh ISYNA1 (11749810_s_at) / RFU ACY1 (11761880_at) / Fold change /veh ACY1 (11761880_at) / RFU 11764098_at / Fold change /veh 11764098_at / RFU SAMD14 (11745864_x_at) / Fold change /veh SAMD14 (11745864_x_at) / RFU NPB (11741838_a_at) / Fold change /veh NPB (11741838_a_at) / RFU TMPRSS6 (11731388_a_at) / Fold change /veh TMPRSS6 (11731388_a_at) / RFU KRTAP10-2 (11738614_at) / Fold change /veh KRTAP10-2 (11738614_at) / RFU ARHGAP8 /// PRR5-ARHGAP8 (11727945_x_at) / Fold change /veh ARHGAP8 /// PRR5-ARHGAP8 (11727945_x_at) / RFU KRTAP5-7 /// NADSYN1 (11734609_at) / Fold change /veh KRTAP5-7 /// NADSYN1 (11734609_at) / RFU RASL12 (11751679_a_at) / Fold change /veh RASL12 (11751679_a_at) / RFU CDKN2B (11736163_a_at) / Fold change /veh CDKN2B (11736163_a_at) / RFU PRF1 (11729649_at) / Fold change /veh PRF1 (11729649_at) / RFU, ZNF638 /// ZNF638-IT1 / Fold change vs veh, ZNF638 /// ZNF638-IT1 / RFU, PANK3 / Fold change vs veh, PANK3 / RFU, SH3YL1 / Fold change vs veh, SH3YL1 / RFU, ZEB2 / Fold change vs veh, ZEB2 / RFU, NRIP1 / Fold change vs veh, NRIP1 / RFU, PTTG1IP / Fold change vs veh, PTTG1IP / RFU, CAPN2 / Fold change vs veh, CAPN2 / RFU, MED14 / Fold change vs veh, MED14 / RFU, SNORA58 / Fold change vs veh, SNORA58 / RFU, C1orf63 / Fold change vs veh, C1orf63 / RFU, LRRFIP1 / Fold change vs veh, LRRFIP1 / RFU, NDUFAF7 / Fold change vs veh, NDUFAF7 / RFU, SLC12A2 / Fold change vs veh, SLC12A2 / RFU, IBTK / Fold change vs veh, IBTK / RFU, ESF1 / Fold change vs veh, ESF1 / Fold change vs veh, TMEM50B / RFU, TAOK1 / Fold change vs veh, TAOK1 / RFU, ACBD3 / Fold change vs veh, ACBD3 / RFU, TMA16 / Fold change vs veh, TMA16 / RFU, RWDD3 / Fold change vs veh, RWDD3 / RFU, BCAT1 / Fold change vs veh, BCAT1 / RFU, EDEM3 / Fold change vs veh, EDEM3 / RFU, TMEM33 / Fold change vs veh, TMEM33 / RFU, WDR75 / Fold change vs veh, WDR75 / RFU, AHCTF1 / Fold change vs veh, AHCTF1 / RFU, TFRC / Fold change vs veh, TFRC / RFU, ZDHHC17 / Fold change vs veh, ZDHHC17 / RFU, NOM1 / Fold change vs veh, NOM1 / RFU, ARL8B / Fold change vs veh, ARL8B / RFU, ZBTB11 / Fold change vs veh, ZBTB11 / RFU, TAMM41 / Fold change vs veh, TAMM41 / RFU, KIAA1704 /// LOC100996395 / Fold change vs veh, KIAA1704 /// LOC100996395 / RFU, ING1 / Fold change vs veh, ING1 / RFU, TRMT61B / Fold change vs veh, TRMT61B / RFU, FUBP3 / Fold change vs veh, FUBP3 / RFU, TP53 / Fold change vs veh, TP53 / RFU, TNKS2 / Fold change vs veh, TNKS2 / RFU, ZFP14 / Fold change vs veh, ZFP14 / RFU, ACTR2 / Fold change vs veh, ACTR2 / RFU, PPP3R1 / Fold change vs veh, PPP3R1 / RFU, PIK3R1 / Fold change vs veh, PIK3R1 / RFU, HNRNPA1 / Fold change vs veh, HNRNPA1 / RFU, RNF170 / Fold change vs veh, RNF170 / RFU, ZNF28 / Fold change vs veh, ZNF28 / RFU, RNGTT / Fold change vs veh, RNGTT / RFU, OGT / Fold change vs veh, OGT / RFU, BRD1 / Fold change vs veh, BRD1 / RFU, MARS / Fold change vs veh, MARS / RFU, ZNF655 / Fold change vs veh, ZNF655 / RFU, FAHD1 / Fold change vs veh, FAHD1 / RFU, BDP1 / Fold change vs veh, BDP1 / RFU, LRRCC1 / Fold change vs veh, LRRCC1 / RFU, ARID1A / Fold change vs veh, ARID1A / RFU, ZNF146 / Fold change vs veh, ZNF146 / RFU, ZNF330 / Fold change vs veh, ZNF330 / RFU, GPN3 / Fold change vs veh, GPN3 / RFU, C9orf123 / Fold change vs veh, C9orf123 / RFU, N4BP2L2 / Fold change vs veh, N4BP2L2 / RFU, ARFIP1 / Fold change vs veh, ARFIP1 / RFU, FAM179B / Fold change vs veh, FAM179B / RFU, BCL10 / Fold change vs veh, BCL10 / RFU, UHRF1BP1L / Fold change vs veh, UHRF1BP1L / RFU, BET1 / Fold change vs veh, BET1 / RFU, CNOT2 / Fold change vs veh, CNOT2 / RFU, ZNF268 / Fold change vs veh, ZNF268 / Fold change vs veh, ZNF507 / RFU, DGCR2 / Fold change vs veh, DGCR2 / RFU, WDSUB1 / Fold change vs veh, WDSUB1 / Fold change vs veh, HSP90B1 /// MIR3652 / RFU, ADSS / Fold change vs veh, ADSS / RFU, GK / Fold change vs veh, GK / RFU, ZNF148 / Fold change vs veh, ZNF148 / RFU, TAF9 / Fold change vs veh, TAF9 / RFU, SLC1A5 / Fold change vs veh, SLC1A5 / RFU, SLMO2 / Fold change vs veh, SLMO2 / RFU, ABCC4 / Fold change vs veh, ABCC4 / RFU, LOC101060439 /// RAP1B / Fold change vs veh, LOC101060439 /// RAP1B / RFU, RFX7 / Fold change vs veh, RFX7 / RFU, GTPBP10 / Fold change vs veh, GTPBP10 / RFU, CNEP1R1 / Fold change vs veh, CNEP1R1 / RFU, BIVM-ERCC5 /// ERCC5 / Fold change vs veh, BIVM-ERCC5 /// ERCC5 / RFU, ILF3 / Fold change vs veh, ILF3 / RFU 11762660_at / Fold change /veh 11762660_at / RFU VCAN (11757783_s_at) / Fold change /veh VCAN (11757783_s_at) / RFU DDX43 (11728927_at) / Fold change /veh DDX43 (11728927_at) / RFU KRT8 (11758188_x_at) / Fold change /veh KRT8 (11758188_x_at) / RFU NKD1 (11759106_at) / Fold change /veh NKD1 (11759106_at) / RFU SRD5A1 (11742802_a_at) / Fold change /veh SRD5A1 (11742802_a_at) / RFU TPSAB1 /// TPSB2 (11721975_s_at) / Fold change /veh TPSAB1 /// TPSB2 (11721975_s_at) / RFU GSTM3 (11746129_a_at) / Fold change /veh GSTM3 (11746129_a_at) / RFU IL23R (11737362_x_at) / Fold change /veh IL23R (11737362_x_at) / RFU TMEM51 (11727254_a_at) / Fold change /veh TMEM51 (11727254_a_at) / RFU PIWIL2 (11732686_x_at) / Fold change /veh PIWIL2 (11732686_x_at) / RFU ORM1 (11744905_x_at) / Fold change /veh ORM1 (11744905_x_at) / RFU CCDC152 (11743942_at) / Fold change /veh CCDC152 (11743942_at) / RFU ECM1 (11717891_a_at) / Fold change /veh ECM1 (11717891_a_at) / RFU IL23R (11748794_a_at) / Fold change /veh IL23R (11748794_a_at) / RFU TNFAIP8L3 (11732012_x_at) / Fold change /veh TNFAIP8L3 (11732012_x_at) / RFU MBOAT4 (11741988_at) / Fold change /veh MBOAT4 (11741988_at) / RFU 11764193_at / Fold change /veh 11764193_at / RFU TMEM53 (11763286_at) / Fold change /veh TMEM53 (11763286_at) / RFU MAGEB2 (11727129_at) / Fold change /veh MAGEB2 (11727129_at) / RFU TMEM200A (11744735_a_at) / Fold change /veh TMEM200A (11744735_a_at) / RFU CCDC152 (11751479_a_at) / Fold change /veh CCDC152 (11751479_a_at) / RFU FAM211A (11726209_a_at) / Fold change /veh FAM211A (11726209_a_at) / RFU RGS16 (11746705_a_at) / Fold change /veh RGS16 (11746705_a_at) / RFU VCAN (11755009_s_at) / Fold change /veh VCAN (11755009_s_at) / RFU RHOB (11743442_s_at) / Fold change /veh RHOB (11743442_s_at) / RFU RGS16 (11720943_a_at) / Fold change /veh RGS16 (11720943_a_at) / RFU RGS16 (11720944_at) / Fold change /veh RGS16 (11720944_at) / RFU, VPS4B / Fold change vs veh, VPS4B / RFU, CREB1 / Fold change vs veh, CREB1 / RFU, DNAJC13 / Fold change vs veh, DNAJC13 / RFU, GNAQ / Fold change vs veh, GNAQ / RFU, CDK5R1 / Fold change vs veh, CDK5R1 / RFU, ZRANB3 / Fold change vs veh, ZRANB3 / RFU, CUL4A / Fold change vs veh, CUL4A / RFU, CCNY / Fold change vs veh, CCNY / RFU, UFL1 / Fold change vs veh, UFL1 / RFU, COG3 / Fold change vs veh, COG3 / RFU, DIAPH2 / Fold change vs veh, DIAPH2 / RFU, SKA2 / Fold change vs veh, SKA2 / RFU, AFF3 / Fold change vs veh, AFF3 / RFU, LMF1 / Fold change vs veh, LMF1 / RFU, IPO11 / Fold change vs veh, IPO11 / RFU, DFFB / Fold change vs veh, DFFB / RFU, FOXP1 / Fold change vs veh, FOXP1 / RFU, CARD8 / Fold change vs veh, CARD8 / RFU, STRN3 / Fold change vs veh, STRN3 / RFU, ADK / Fold change vs veh, ADK / RFU, RASSF2 / Fold change vs veh, RASSF2 / RFU, WIPF1 / Fold change vs veh, WIPF1 / RFU, LARP1B / Fold change vs veh, LARP1B / RFU, RASA1 / Fold change vs veh, RASA1 / RFU, RB1 / Fold change vs veh, RB1 / RFU, PPFIA1 / Fold change vs veh, PPFIA1 / RFU, MAT2A / Fold change vs veh, MAT2A / RFU, CCT5 / Fold change vs veh, CCT5 / RFU, WDR92 / Fold change vs veh, WDR92 / RFU, CUX1 / Fold change vs veh, CUX1 / RFU, TTC7A / Fold change vs veh, TTC7A / RFU, TMEM135 / Fold change vs veh, TMEM135 / RFU, DEPTOR / Fold change vs veh, DEPTOR / RFU, CPM / Fold change vs veh, CPM / RFU, DNAJB6 / Fold change vs veh, DNAJB6 / RFU, CACNA2D3 / Fold change vs veh, CACNA2D3 / RFU, DTX4 / Fold change vs veh, DTX4 / RFU, TFCP2 / Fold change vs veh, TFCP2 / RFU, GMCL1 /// GMCL1P1 / Fold change vs veh, GMCL1 /// GMCL1P1 / RFU, AEBP2 / Fold change vs veh, AEBP2 / RFU, SNHG1 /// SNORD22 /// SNORD25 /// SNORD26 /// SNORD27 /// SNORD28 /// SNORD29 /// SNORD31 / Fold change vs veh, SNHG1 /// SNORD22 /// SNORD25 /// SNORD26 /// SNORD27 /// SNORD28 /// SNORD29 /// SNORD31 / Fold change (Aza/veh), C12orf56 (ProbeSet 11735607_a_at) / Fold change (ACY-1035/veh), C12orf56 (ProbeSet 11735607_a_at) / Fold change (Aza/veh), FGFR1OP (ProbeSet 11751329_s_at) / Fold change (ACY-1035/veh), FGFR1OP (ProbeSet 11751329_s_at) / Fold change (Aza/veh), VPS36 (ProbeSet 11739960_a_at) / Fold change (ACY-1035/veh), VPS36 (ProbeSet 11739960_a_at) / RFU SYPL1 (11715823_x_at) / Fold change /veh SYPL1 (11715823_x_at) / RFU IGFBP7 (11715501_s_at) / Fold change /veh IGFBP7 (11715501_s_at) / RFU REEP3 (11722064_at) / Fold change /veh REEP3 (11722064_at) / RFU IGLL1 (11728026_x_at) / Fold change /veh IGLL1 (11728026_x_at): dose or concentration left out as unconfirmed
Details: MV-4-11 cells, 48 hours

## Nc1ncn([C@@H]2O[C@H](CO)[C@@H](O)[C@H]2O)c(=O)n1 [azacitidine]
  RFU CAPN14 (11732068_a_at): 10.94 RFU
